Source: patent US20220096517A1, “MicroRNA Compounds and Methods for Modulating MIR-10B Activity” (Regulus Therapeutics Inc., priority 2018, published 2022)
In the oligonucleotide strings, read from the 5' end, every base follows the letter of its sugar. An asterisk marks phosphorothioate; unmarked linkages are phosphodiester. Other units and linkages are bracketed, terminal groups are in braces. A string of capitals states the bases alone. e = 2'-O-(2-methoxyethyl) (MOE); [5mC] = 5-methylcytosine

How the values were obtained:
[1] = tested on: LN229 cells; test: cell viability assay (CellTiter-Glo), LN229 cells; type: cell-based, human; details: RNAiMAX transfection, 72 hours
Experimental: (§1) For the cell viability assay, approximately 8,000 cells were plated into each well of a 96-well plate. The following day, cells were transfected with anti-miR-10b compound at doses of 2, 4, 8, 16, 31, 63, 125, 250, and 500 nM, using RNAiMAX™ as the transfection reagent. After 72 hours, cell viability was determined using the CellTiter-Glo® Luminescent Cell Viability Assay. An IC50 was calculated for each compound. The assay was performed using both LN229, U87, MCF7, and HCN2 cells.

[2] = tested on: U87 cells; test: cell viability assay (CellTiter-Glo), U87 cells; type: cell-based; details: RNAiMAX transfection, 72 hours
Experimental: as §1

[3] = tested on: HCN2 cells; test: cell viability assay (CellTiter-Glo), HCN2 cells; type: cell-based; details: RNAiMAX transfection, 72 hours
Experimental: as §1

[4] = tested on: LN229 cells; test: LN229 Orthotopic Model, summary of in vivo studies (Table 7); parameters: species or system nude mice; details: for survival benefit: Intratumoral anti-miR-10b alone, cell reads 'No survival benefit' over three lines
Experimental: (§2) Human gliomablastoma-derived cells growing in culture are trypsinzed, counted, and resuspended PBS. The cells express a fluorescent marker and luciferase insertion that enables monitoring of tumor growth and size via an in vivo imaging system. Approximately 5×10^5 cells, in a volume of 5 ul, are injected into the brain of nude mice. Following intracranial tumor implantation, tumor burden is measured using the IVIS Spectrum In Vivo Imaging System (PerkinElmer), and mice are randomized into treatment groups. Intratumoral (e.g., 0.1-500 ug/tumor), subcutaneous (e.g., 100 mg/kg) or intravenous (e.g., 80 mg/kg) dosing of anti-miR-10b compound begins post-implantation. Tumor burden is measured weekly using the imaging system. Final tumor size and weight are measured at the end of the study.
Three candidate therapeutic agents, RG5579, RG5461, and RG5658 were tested in the subcutaneous and orthotopic glioma models. […] The studies were designed to evaluate subcutaneous administration vs. intratumoral administration in subcutaneous in orthotopic models; efficacy of the anti-miR-10b compound alone and in combination with TMZ; and efficacy of a single injection of anti-miR-10b compound vs multiple injections. The research tool compound RG384124 was also tested.
The results of the in vivo studies are summarized in Table 7 and illustrate the substantial improvement of overall survival following treatment with both anti-miR-10b compound and TMZ. RG5461 and RG5658 improved overall median survival in combination with TMZ treatment.

[5] = tested on: MCF7 cells; test: cell viability assay (CellTiter-Glo), MCF7 cells; type: cell-based; details: RNAiMAX transfection, 72 hours
Experimental: as §1

[6] = tested on: miR-10b; test: luciferase reporter assay for miR-10b in stable Hela cell line; type: cell-based; details: Hela reporter cells transfected with miR-10b; for Luciferase (avg fold change) 1 nM: 1 nM anti-miR-10b compound; for Luciferase (avg fold change) 10 nM: 10 nM anti-miR-10b compound; for Luciferase (avg fold change) 100 nM: 100 nM anti-miR-10b compound
Experimental: In vitro potency was evaluated using a luciferase reporter assay. A luciferase reporter plasmid for miR-10b was designed, with a fully complementary miR-10b binding site in the 3′-UTR of the luciferase gene. A stable Hela cell line expressing this luciferase construct was generated. Cells were transfected to introduce miR-10b, which represses the expression of luciferase from the reporter construct. […] Cells were treated with anti-miR-10b compound at concentrations of 1 nM, 10 nM, and 100 nM. […] As shorter compounds, such as 9-mers, are typically not maximally active in the same assay conditions used for longer compounds, shorter compounds were selected based on maximum inhibition relative to appropriate control compounds. In this way, compounds that are diverse in both length and chemical composition were included in further testing.

[7] = tested on: LN229 cells; test: orthotopic LN229 glioblastoma model, RG5461 and RG5658 alone or with TMZ, survival; type: in vivo; details: single intratumoral dose Day 21 (20 ug RG5658, 50 ug RG5461), TMZ daily Days 35-41, nude mice
Experimental: RG5658 and RG5461 were tested in an orthotopic model of GBM established with LN229 cells. Treatments comprised anti-miR-10b compound alone or in combination with TMZ.
Further testing was performed to evaluate the effects of RG5658 and RG5461 treatment in combination with TMZ. Human gliomablastoma-derived LN229 cells growing in culture were trypsinzed, counted, and resuspended PBS. The cells express a fluorescent marker that enables monitoring of tumor growth and size during treatment. Approximately 5×10^5 cells, in a volume of 5 ul, were injected into the brain of nude mice on Day 0. Mice were randomized into the following treatment groups, with 8 mice per group: (1) PBS; (2) RG5461; (3) RG5658; (4) RG5461+TMZ; (5) RG5658+TMZ; and (6) PBS+TMZ. On Day 21, a single dose of anti-miR-10b compound was administered intratumorally at a dose of 20 ug for RG5658 or 50 ug for RG5461. TMZ was administered daily on each of Days 35-41. Survival was monitored, and overall median survival was determined.

[8] = tested on: LN229 cells; test: orthotopic LN229 glioblastoma model, RG5579 alone or with TMZ, survival; type: in vivo; details: intratumoral 40 ug RG5579 Day 21, TMZ daily Days 35-41, nude mice
Experimental: RG5579 was tested in an orthotopic model of GBM established with LN229 cells.
Human gliomablastoma-derived LN229 cells growing in culture were trypsinized, counted, and resuspended PBS. The cells express a fluorescent marker that enables monitoring of tumor growth and size during treatment. Approximately 5×10^5 cells, in a volume of 5 ul, were injected into the brain of nude mice on Day 0. Mice were randomized into the following treatment groups, with 8 mice per group: (1) PBS; (2) RG5579; (3) PBS+TMZ; and (4) RG5579+TMZ. On Day 21, mice were given an intratumoral injection of either PBS or 40 ug of RG5579. On Days 35-41, TMZ was administered daily. Survival was monitored, and overall median survival was determined.

[9] = tested on: Human gliomablastoma-derived cells; test: initial testing in subcutaneous and orthotopic glioma models, single intratumoral dose; type: in vivo, nude mice; details: single dose administered intratumorally
Experimental: Human gliomablastoma-derived cells growing in culture are trypsinzed, counted, and resuspended in a 1:1 mixture of media:growth factor reduced Matrigel. Approximately 10^6 cells, in a volume of 100 ul, are injected subcutaneously into the flank of nude mice. Ten days following subcutaneous tumor implantation, tumor size is measured using calipers, and mice are randomized into treatment groups. Intratumoral (e.g., 5 ug/30 mm^3 tumor), subcutaneous (e.g., 100 mg/kg) or intravenous (e.g., 80 mg/kg) dosing of anti-miR-10b compound begins post-implantation. Tumor size is measured three to five days per week. Final tumor size and weight are measured at the end of the study.
as §2, with “Intratumoral (e.g., 0.1-500 ug/tumor), subcutaneous (e.g., 100 mg/kg) or intravenous (e.g., 80 mg/kg) dosing of anti-miR-10b compound begins post-implantation.” left out

[10] = tested on: miR-10b; test: PD signature (mRNA of direct miR-10b target genes) in LN229 cells; type: cell-based, human
Experimental: To evaluate the on-target pharmacodynamic effects of treatment with anti-miR-10b, 18 genes that are direct targets of miR-10b were identified by next generation sequencing, and the expression of each of these genes following anti-miR-10b treatment was measured. The 18 genes were: ATXN2, ATXN7, BCL6, BDNF, CRLF3, DAZAP1, DVL3, FXR2, GATAD2A, GCLM, GTF2H1, INO80D, MIEF1, NCOA6, NFE2L1, PDE4A, SMAD2, and TET2.
LN229 cells were treated with a concentration of RG5579 ranging from 2 to 500 nM. After 24 hours, RNA was isolated and the mRNA levels of the 18 genes targeted were measured and averaged to provide a pharmacodynamic signature score (PD Signature Score), represented as Log 2 fold-change (Log 2FC) relative to mock-transfection.
Similar studies were conducted with RG5461 and RG5658, using a PD signature of 10 genes (non-overlapping with the 18-gene PD signature above).

In the case of “5′-CACAAATTCGGTTCTACAGGGTA-3′ (antisense e[5mC]*eA*e[5mC]*eA*eA*eA*eT*eT*e[5mC]*eG*eG*eT*eT*e[5mC]*eT*eA*e[5mC]*eA*eG*eG*eG*eT*eA) [RG384124, research tool compound; each nucleoside 2′-O-methoxyethyl, each C 5-methylcytosine, each linkage phosphorothioate]”, the IC50 [1] is reported as 43 nM, the IC50 [2] is reported as 31.3 nM and the IC50 [3] is reported as 44.4 nM. For the same compound, the survival benefit [4] was “No”, the IC50 [5] was 80.5 nM and the “Luciferase (avg fold change) 1 nM” value [6] was 2.8 fold change. For the same compound, the “Luciferase (avg fold change) 10 nM” value [6] was 29.5 fold change and the “Luciferase (avg fold change) 100 nM” value [6] was 55.6 fold change.

For `Cn1nnc2c(C(N)=O)ncn2c1=O` [TMZ, temozolomide], the “% increase (relative to PBS) of median survival” value [7] was 22%, the “Median Survival” value [7] was 67.5 days and the “Median Overall Survival % increase (relative to PBS)” value [8] was 27%. The “Median Overall Survival Days” value [8] was 61.5 days.

With “UKAKCMAFGFGFGMUKAK (CAAATUCGGTTCTACAGGGTA; LNA/2'-F/2'-OMe modifications, chemistry not fully specified) [RG5658, anti-miR-10b modified oligonucleotide, 9 linked nucleosides]” the overall survival [9] was “did not significantly improve overall survival”, the tumor growth [9] was “consistently delayed tumor growth” and the “Median Survival” value [7] was 56 days. It also gave an IC50 [1] of 90.1 nM, an IC50 [2] of 45.6 nM and a median survival increase ([4]; Intratumoral anti-miR-10b + TMZ) of 71%. For the same compound, the survival benefit [4] was “No”, the IC50 [5] was 929 nM and the “Luciferase (avg fold change) 1 nM” value [6] was 1.8 fold change. The “Luciferase (avg fold change) 10 nM” value [6] was 3.7 fold change, the “Luciferase (avg fold change) 100 nM” value [6] was 4.7 fold change and the “10-gene PD signature” value [10] was “dose-dependent de-repression of a 10-gene PD signature”.
